Source: US20050101595A1, “N-containing cycloalkyl-substituted amino-thiazole derivatives and pharmaceutical compositions for inhibiting cell proliferation and methods for their use” (PFIZER INC., priority 2003, published 2005)
pIC50: −log10 of the molar value.

These compounds were tested on HCT-116 cell line (assay: Inhibition of cell growth, tetrazolium salt (MTT) assay). Conditions: HCT116 cells; compound at 250 nM.
Type: cell-based
Description: Inhibition of Cell Growth: Assessment of Cytotoxicity:
Inhibition of cell growth was measured using the tetrazolium salt assay, which is based on the ability of viable cells to reduce 3-(4,5-dimethylthiazol-2-yl)-2,5-[2H]-diphenyltetrazolium bromide (MTT) to formazan (Mossman, Journal of Immunological Methods, vol. 65 (1983), pp. 55-58). The water-insoluble purple formazan product was then detected spectrophotometrically. The HCT-116 cell line was used as a representative cancer cell line and grown in 96-well plates. Cells were plated in McCoy's 5A Medium at a volume of 135 μl/well. Plates were incubated for four hours before addition of inhibitor compounds. Different concentrations of inhibitor compounds were added in 0.5% (v/v) dimethylsulfoxide (15 μLuwell), and cells were incubated at 37° C. (5% CO2) for three to five days. At the end of the incubation, MTT was added to a final concentration of 0.2 mg/mL, and cells were incubated for 4 hours more at 37° C. After centrifugation of the plates and removal of medium, the absorbance of the formazan (solubilized in dimethylsulfoxide) was measured at 540 nm. […] All results were compared to control cells treated only with 0.5% (v/v) dimethylsulfoxide.
For `CC1CCCN1CCS(=O)(=O)N1CCC(Nc2nc(N)c(C(=O)c3c(F)cccc3F)s2)CC1` (racemic) [Example S40], the “% Inhibition HCT116 @ 250 nM” value was 93%.
With `CC1CCCC(NCCS(=O)(=O)N2CCC(Nc3nc(N)c(C(=O)c4c(F)cccc4F)s3)CC2)C1` (mixture of isomers) [Example S57] the “% Inhibition HCT116 @ 250 nM” value was 73%.

Same assay, conditions: HCT116 cells; compound at 250 nM; 0.25 µM
For `CC(=O)NCCNCCS(=O)(=O)N1CCC(Nc2nc(N)c(C(=O)c3c(F)cccc3F)s2)CC1` [Example S113], the “% Inhibition HCT116 @ 250 nM” value was 51%.

Same assay, conditions: Homo sapiens, HCT-116, 120 h, first HCT-116 column (c4); MTT, three to five days; read-out: HCT-116 IC50
In the case of `Nc1nc(NC2CCN(S(=O)(=O)CCNCc3c(F)cccc3F)CC2)sc1C(=O)c1c(F)cccc1F` [Example K50, (4-Amino-2-{1-[2-(2,6-difluoro-benzylamino)-ethanesulfonyl]-piperidin-4-ylamino}-thiazol-5-yl)-(2,6-difluoro-phenyl)-methanone], the pIC50 was 6.70.

Same assay, conditions: Homo sapiens, HCT-116, 120 h, second HCT-116 column (c5); MTT, three to five days; read-out: HCT-116 IC50
`Nc1nc(NC2CCN(S(=O)(=O)CCNCc3c(F)cccc3F)CC2)sc1C(=O)c1c(F)cccc1F` [Example K50, (4-Amino-2-{1-[2-(2,6-difluoro-benzylamino)-ethanesulfonyl]-piperidin-4-ylamino}-thiazol-5-yl)-(2,6-difluoro-phenyl)-methanone] gave a pIC50 of 6.30.

Same assay, conditions: Homo sapiens, HCT-116, HCT116 cells; compound at 250 nM; read-out: % Inhibition HCT116 @ 250 nM
In the case of `Nc1nc(NC2CCN(S(=O)(=O)CCNCCN3CCOCC3)CC2)sc1C(=O)c1c(F)cccc1F` [Example S87], the inhibition at 0.25 µM was 13%.
`Nc1nc(NC2CCN(S(=O)(=O)CCN3CCCC(O)C3)CC2)sc1C(=O)c1c(F)cccc1F` (stereo not shown) [Example S39] gave an inhibition at 0.25 µM of 14%.
With `Nc1nc(NC2CCN(S(=O)(=O)CCNCc3cccc(F)c3)CC2)sc1C(=O)c1c(F)cccc1F` [Example S99] the inhibition at 0.25 µM was 43%.
With `CN1CCCN(CCS(=O)(=O)N2CCC(Nc3nc(N)c(C(=O)c4c(F)cccc4F)s3)CC2)CC1` [Example S176] the inhibition at 0.25 µM was 17%.
Compound `CC(C)N(CCS(=O)(=O)N1CCC(Nc2nc(N)c(C(=O)c3c(F)cccc3F)s2)CC1)Cc1ccccc1` [Example S44] has an inhibition at 0.25 µM of 55%.
For `CN(CCc1ccccn1)CCS(=O)(=O)N1CCC(Nc2nc(N)c(C(=O)c3c(F)cccc3F)s2)CC1` [Example S26], the inhibition at 0.25 µM was 17%.
With `NC(=O)[C@H]1CCCN1CCS(=O)(=O)N1CCC(Nc2nc(N)c(C(=O)c3c(F)cccc3F)s2)CC1` [Example S64] the inhibition at 0.25 µM was 12%.
For `CN(C)[C@H]1CCN(CCS(=O)(=O)N2CCC(Nc3nc(N)c(C(=O)c4c(F)cccc4F)s3)CC2)C1` [Example S61], the inhibition at 0.25 µM was 8%.
For `CCN(CCS(=O)(=O)N1CCC(Nc2nc(N)c(C(=O)c3c(F)cccc3F)s2)CC1)CC(C)(C)O` [Example S35], the inhibition at 0.25 µM was 58%.
In the case of `Nc1nc(NC2CCN(S(=O)(=O)CCNCCc3cnc[nH]3)CC2)sc1C(=O)c1c(F)cccc1F` [Example S75], the inhibition at 0.25 µM was 12%.
Work on `NC(=O)[C@@H]1CCCN1CCS(=O)(=O)N1CCC(Nc2nc(N)c(C(=O)c3c(F)cccc3F)s2)CC1` [Example S20] yielded an inhibition at 0.25 µM of 18%.
With `Nc1nc(NC2CCN(S(=O)(=O)CCNCCOCCO)CC2)sc1C(=O)c1c(F)cccc1F` [Example S147] the inhibition at 0.25 µM was 23%.
For `CN1CCC(NCCS(=O)(=O)N2CCC(Nc3nc(N)c(C(=O)c4c(F)cccc4F)s3)CC2)C1=O` (stereo not shown) [Example S157], the inhibition at 0.25 µM was 16%.
`Nc1nc(NC2CCN(S(=O)(=O)CCNCC3CCCO3)CC2)sc1C(=O)c1c(F)cccc1F` (stereo not shown) [Example S77] gave an inhibition at 0.25 µM of 9%.
`Nc1nc(NC2CCN(S(=O)(=O)CCNCc3cccc(F)c3F)CC2)sc1C(=O)c1c(F)cccc1F` [Example S158] gave an inhibition at 0.25 µM of 73%.
Compound `CCC(CO)NCCS(=O)(=O)N1CCC(Nc2nc(N)c(C(=O)c3c(F)cccc3F)s2)CC1` (stereo not shown) [Example S92] has an inhibition at 0.25 µM of 8%.
Compound `C#CC(CC)(CC)NCCS(=O)(=O)N1CCC(Nc2nc(N)c(C(=O)c3c(F)cccc3F)s2)CC1` [Example S175] has an inhibition at 0.25 µM of 99%.
`N#CCCNCCS(=O)(=O)N1CCC(Nc2nc(N)c(C(=O)c3c(F)cccc3F)s2)CC1` [Example S132] showed an inhibition at 0.25 µM of 20%.
`CC(NCCS(=O)(=O)N1CCC(Nc2nc(N)c(C(=O)c3c(F)cccc3F)s2)CC1)c1ccccc1` (stereo not shown) [Example S78] gave an inhibition at 0.25 µM of 49%.
With `CCN(CCO)CCS(=O)(=O)N1CCC(Nc2nc(N)c(C(=O)c3c(F)cccc3F)s2)CC1` [Example S5] the inhibition at 0.25 µM was 26%.
`CC1CC(NCCS(=O)(=O)N2CCC(Nc3nc(N)c(C(=O)c4c(F)cccc4F)s3)CC2)CC(C)(C)C1` (stereo not shown) [Example S136] was tested, and the inhibition at 0.25 µM was 81%.
Work on `CN(CCO)CCS(=O)(=O)N1CCC(Nc2nc(N)c(C(=O)c3c(F)cccc3F)s2)CC1` [Example S4] yielded an inhibition at 0.25 µM of 25%.
In the case of `Nc1nc(NC2CCN(S(=O)(=O)CCNCc3cccs3)CC2)sc1C(=O)c1c(F)cccc1F` [Example S88], the inhibition at 0.25 µM was 28%.
Work on `Nc1nc(NC2CCN(S(=O)(=O)CCN3CCCCCC3)CC2)sc1C(=O)c1c(F)cccc1F` [Example S7] yielded an inhibition at 0.25 µM of 22%.
Compound `CC(O)CNCCS(=O)(=O)N1CCC(Nc2nc(N)c(C(=O)c3c(F)cccc3F)s2)CC1` (stereo not shown) [Example S110] has an inhibition at 0.25 µM of 16%.
`Nc1nc(NC2CCN(S(=O)(=O)CCN3CCSC3)CC2)sc1C(=O)c1c(F)cccc1F` [Example S22] showed an inhibition at 0.25 µM of 18%.
`C=CCNCCS(=O)(=O)N1CCC(Nc2nc(N)c(C(=O)c3c(F)cccc3F)s2)CC1` [Example S120] was tested, and the inhibition at 0.25 µM was 17%.
`Nc1nc(NC2CCN(S(=O)(=O)CCNCCc3ccccc3)CC2)sc1C(=O)c1c(F)cccc1F` [Example S116] showed an inhibition at 0.25 µM of 60%.
`CC(C)OCCCNCCS(=O)(=O)N1CCC(Nc2nc(N)c(C(=O)c3c(F)cccc3F)s2)CC1` [Example S123] gave an inhibition at 0.25 µM of 15%.
`COCC(C)NCCS(=O)(=O)N1CCC(Nc2nc(N)c(C(=O)c3c(F)cccc3F)s2)CC1` (stereo not shown) [Example S89] gave an inhibition at 0.25 µM of 17%.
In the case of `CN(CCS(=O)(=O)N1CCC(Nc2nc(N)c(C(=O)c3c(F)cccc3F)s2)CC1)Cc1cccnc1` [Example S34], the inhibition at 0.25 µM was 21%.
For `Nc1nc(NC2CCN(S(=O)(=O)CCN3CCC(CO)CC3)CC2)sc1C(=O)c1c(F)cccc1F` [Example S63], the inhibition at 0.25 µM was 4%.
`Nc1nc(NC2CCN(S(=O)(=O)CCNCc3ccc(Cl)cc3)CC2)sc1C(=O)c1c(F)cccc1F` [Example S103] showed an inhibition at 0.25 µM of 25%.
`CC(CCCC(C)(C)O)NCCS(=O)(=O)N1CCC(Nc2nc(N)c(C(=O)c3c(F)cccc3F)s2)CC1` (stereo not shown) [Example S162] showed an inhibition at 0.25 µM of 22%.
In the case of `Nc1nc(NC2CCN(S(=O)(=O)CCNCCN3CCCCC3)CC2)sc1C(=O)c1c(F)cccc1F` [Example S82], the inhibition at 0.25 µM was 15%.
With `Cc1ccccc1CNCCS(=O)(=O)N1CCC(Nc2nc(N)c(C(=O)c3c(F)cccc3F)s2)CC1` [Example S98] the inhibition at 0.25 µM was 49%.
With `Nc1nc(NC2CCN(S(=O)(=O)CCNCCCN3CCCC3=O)CC2)sc1C(=O)c1c(F)cccc1F` [Example S71] the inhibition at 0.25 µM was 23%.
With `Nc1nc(NC2CCN(S(=O)(=O)CCNCc3cc(F)cc(F)c3)CC2)sc1C(=O)c1c(F)cccc1F` [Example S154] the inhibition at 0.25 µM was 31%.
In the case of `COc1ccccc1CNCCS(=O)(=O)N1CCC(Nc2nc(N)c(C(=O)c3c(F)cccc3F)s2)CC1` [Example S97], the inhibition at 0.25 µM was 25%.
Work on `COC(=O)[C@@H](C)NCCS(=O)(=O)N1CCC(Nc2nc(N)c(C(=O)c3c(F)cccc3F)s2)CC1` [Example S155] yielded an inhibition at 0.25 µM of 96%.
`Nc1nc(NC2CCN(S(=O)(=O)CCNCC(O)c3ccccc3)CC2)sc1C(=O)c1c(F)cccc1F` (stereo not shown) [Example S109] showed an inhibition at 0.25 µM of 19%.
For `Nc1nc(NC2CCN(S(=O)(=O)CCN3CCC[C@H]3CO)CC2)sc1C(=O)c1c(F)cccc1F` [Example S19], the inhibition at 0.25 µM was 15%.
For `Nc1nc(NC2CCN(S(=O)(=O)CCNC3CCSC3=O)CC2)sc1C(=O)c1c(F)cccc1F` (stereo not shown) [Example S152], the inhibition at 0.25 µM was 95%.
With `CCN(CC)CCN(CC)CCS(=O)(=O)N1CCC(Nc2nc(N)c(C(=O)c3c(F)cccc3F)s2)CC1` [Example S43] the inhibition at 0.25 µM was 13%.
